Legend:
Format in all cases: cell-based, human
TGCT cell lines = assay: XTT cell viability assay, summarised over TGCT tumor cell lines
Experimental: (§1) The following cell lines were used 2102EP, 2102EP-R, NCCIT, NCCIT-R (all ECs), TCam2 (seminoma cell line), FS1 (Sertoli cell line) and MPAF (human adult fibroblast cell line). Cells were cultivated as described previously. In brief, the ECs were cultivated in Dulbecco’s modified Eagle’s medium (DMEM) supplemented with 10% fetal bovine serum (FBS), 1% penicillin–streptomycin and […] L-glutamine. FS1 cells were grown in DMEM supplemented with 20% FSB, 1% penicillin–streptomycin, 200 mM L-glutamine and 1% nonessential amino acids (NEAA). MPAF cells were cultured in DMEM supplemented with 10% FBS, 1% penicillin–streptomycin, 200 mM L-glutamine and 1% NEAA. TCam2 cell line was cultured in RPMI medium supplemented with 10% FBS, 1% penicillin–streptomycin and […] L-glutamine. All cell lines were kept at 37 °C and 7.5% CO2. 2102EP and NCCIT were a kind gift from Prof. Dr. L. Looijenga (Princess Máxima Center for Pediatric Oncology, Utrecht, The Netherlands). Cisplatin-resistant lines 2102EP-R and NCCIT-R were obtained from PD Dr. F. Honecker (Breast and Tumor Center, ZeTup Silberturm, St. Gallen, Switzerland). MPAFs were a kind gift from […] (Bonn University, Institute of Reconstructive Neurobiology, Bonn, Germany). FS1 cells were obtained from Prof. Dr. V. Schumacher (Boston Children’s Hospital, Department of Urology; Harvard Medical School, Department of Surgery, Boston, MA, USA).
(§2) The assay was performed based on the reduction in XTT tetrazolium salt as described previously. In summary, 3000 cells were seeded per well of a 96-well cell culture plate in 100 µL of cell culture medium. The next day, cells were treated with CDK inhibitor or CDK degrader for 24/48/72 h. For XTT assay, 0.6 mg/mL XTT sodium salt was dissolved in cell culture medium (DMEM or RPMI) and supplemented with 25 µM electron carrier N-methyl dibenzopyrazine methyl sulfate (PMS). A total of 50 µL of XTT/PMS was added to each well and incubated for 4 h at 37 °C, 7.5% CO2. For readout, absorption was measured at 450 nm and 650 nm. Specific XTT signal (450 nm) was subtracted by nonspecific absorbance (650) and blank (cell culture medium). Averages of technical triplicates were calculated, and treated sample was referenced to the corresponding dimethyl sufoxide (DMSO) control. Experiment was repeated several times to obtain biological replicates. For statistical analysis, two-tailed Student’s t-test was applied.

NCCIT cells = assay: XTT cell viability assay, NCCIT
Experimental: as §1, §2

[1] = test system: TGCT and control cell lines; assay: Hoechst-FACS cell cycle analysis; conditions: 20 h; NVP2 and SY0351 10 nM, YKL-5-124 and THZ531 100 nM
Experimental: (§3) Cells were seeded in 6-well cell culture plates (1.5 × 10^5 cells/well). […] For cell cycle analysis, cells were harvested after 20 h of treatment and resuspended in PBS. Ice-cold methanol was added dropwise while shaking until 70% methanol v/v was reached. Cells were incubated for 2 h at 4 °C and subsequently washed twice with cold PBS. Staining (2 µg/mL Hoechst-33342, 50 µg/mL RNaseA in PBS) was performed for 30 min at 37 °C. The cell cycle distribution was measured in an FACS Canto (BD BioSciences, Heidelberg, Germany) and analyzed using FlowJo™ v10.8 Software (BD BioSciences, Heidelberg, Germany). For apoptosis analysis, PE AnnexinV Apoptosis Detection Kit with 7-AAD (BioLegend, San Diego, CA USA) was used according to the manufacturer’s manual. Measurement was performed in an FACS Canto while analysis was performed in the corresponding BD FACSDiva software^TM (BD BioSciences, Heidelberg, Germany). Two-tailed Student’s t-test was applied for calculation of significance.

TCam2 cells = assay: XTT cell viability assay, TCam2
Experimental: as §1, §2

MPAF cells = assay: XTT cell viability assay, MPAF fibroblast control; conditions: for IC50: XTT viability
Experimental: as §1, §2

2102EP-R cells = assay: XTT cell viability assay, 2102EP-R (cisplatin-resistant)
Experimental: as §1, §2

[2] = test system: TCam2, FS1 and MPAF cells; assay: 7AAD/AnnexinV FACS apoptosis analysis, TCam2, FS1 and MPAF; conditions: 10 nM, 24 and 48 h
Experimental: as §3

2102EP and NCCIT cells = assay: 7AAD/AnnexinV FACS apoptosis analysis, 2102EP and NCCIT; conditions: 10 nM, 24 and 48 h
Experimental: as §3

2102EP cells = assay: XTT cell viability assay, 2102EP
Experimental: as §1, §2

FS1 cells = assay: XTT cell viability assay, FS1 Sertoli control
Experimental: as §1, §2

NCCIT-R cells = assay: XTT cell viability assay, NCCIT-R (cisplatin-resistant)
Experimental: as §1, §2

[3] = test system: TGCT and control cell lines; assay: 7AAD/AnnexinV FACS apoptosis analysis, TGCT and control cell lines; conditions: 100 nM, 24 and 48 h
Experimental: as §3

SMILES: COC[C@@H](C)N[C@H]1CC[C@H](Nc2cc(-c3cccc(NCC4(C#N)CCOCC4)n3)c(Cl)cn2)CC1 [NVP2]
- viability (XTT) (TGCT cell lines; TGCT cell lines and FS1 cell line, 10 nM): effectively reduced the viability
- IC50 (NCCIT cells; 24 h): 90.6 nM
- IC50 (NCCIT cells; 48 h): 40.7 nM
- IC50 (NCCIT cells; 72 h): 6.5 nM
- effect on cell cycle [1]: only mild effects on the cell cycle
- IC50 (TCam2 cells; TCam2, 24 h): 216 nM
- IC50 (TCam2 cells; TCam2, 48 h): 60 nM
- IC50 (TCam2 cells; TCam2, 72 h): 16.1 nM
- IC50 (MPAF cells; 24 h): > 1000 nM
- IC50 (MPAF cells; 48 h): > 1000 nM
- IC50 (MPAF cells; 72 h): > 1000 nM
- IC50 (2102EP-R cells; 24 h): 884 nM
- IC50 (2102EP-R cells; 48 h): 11.2 nM
- IC50 (2102EP-R cells; 72 h): 8.6 nM
- fold change in apoptotic cells [2]: up to 3.3 fold
- apoptosis, fold compared to the control (2102EP and NCCIT cells): up to 5.5 fold
- IC50 (2102EP cells; 24 h): 503 nM
- IC50 (2102EP cells; 48 h): 10.5 nM
- IC50 (2102EP cells; 72 h): 6.1 nM
- IC50 (FS1 cells; FS1, 24 h): 98.2 nM
- IC50 (FS1 cells; FS1, 48 h): 33.5 nM
- IC50 (FS1 cells; FS1, 72 h): 8.9 nM
- IC50 (NCCIT-R cells; 24 h): 104 nM
- IC50 (NCCIT-R cells; 48 h): 17.1 nM
- IC50 (NCCIT-R cells; 72 h): 12.2 nM

SMILES: C=CC(=O)Nc1ccc(C(=O)Nc2[nH]nc3c2CN(C(=O)N[C@H](CN(C)C)c2ccccc2)C3(C)C)cc1 [YKL-5-124]
- IC50 (NCCIT cells; 24 h): > 1000 nM
- IC50 (NCCIT cells; 48 h): > 1000 nM
- IC50 (NCCIT cells; 72 h): 121 nM
- effect on cell cycle [1]: only mild effects on the cell cycle
- IC50 (TCam2 cells; TCam2, 24 h): > 1000 nM
- IC50 (TCam2 cells; TCam2, 48 h): > 1000 nM
- IC50 (TCam2 cells; TCam2, 72 h): 263 nM
- IC50 (MPAF cells; 24 h): > 1000 nM
- IC50 (MPAF cells; 48 h): > 1000 nM
- IC50 (MPAF cells; 72 h): > 1000 nM
- viability (XTT) (MPAF cells; highest concentration tested (500 nM)): unaffected
- IC50 (2102EP-R cells; 24 h): > 1000 nM
- IC50 (2102EP-R cells; 48 h): 30.5 nM
- IC50 (2102EP-R cells; 72 h): 23.6 nM
- IC50 (2102EP cells; 24 h): 318 nM
- IC50 (2102EP cells; 48 h): 43.6 nM
- IC50 (2102EP cells; 72 h): 17.2 nM
- IC50 (FS1 cells; FS1, 24 h): > 1000 nM
- IC50 (FS1 cells; FS1, 48 h): > 1000 nM
- IC50 (FS1 cells; FS1, 72 h): 95.2 nM
- IC50 (NCCIT-R cells; 24 h): > 1000 nM
- IC50 (NCCIT-R cells; 48 h): > 1000 nM
- IC50 (NCCIT-R cells; 72 h): 178 nM
- apoptosis, fold change over DMSO control [3]: up to 2.8 fold
- apoptosis, treatment vs control ([3]; FS1 and MPAF cells): almost no difference between treatment and control

SMILES: CN1CC[C@H](c2c(O)cc(O)c3c(=O)cc(-c4ccccc4Cl)oc23)[C@H](O)C1 [Flavo-Piridol, flavopiridol]
- viability (XTT) (TGCT cell lines; EC cell lines (2102EP, 2102EP-R, NCCIT, NCCIT-R), 50 nM): strong decrease in viability
- IC50 (TGCT cell lines; Homo sapiens, 72 h, tumor (TGCT) cell lines, XTT viability, read-out: IC50 at 72 h, range over tumor cell lines): 7.5 to 273 nM
- IC50 (NCCIT cells; Homo sapiens, 24 h): 710 nM
- IC50 (NCCIT cells; Homo sapiens, 48 h): 21.9 nM
- IC50 (NCCIT cells; Homo sapiens, 72 h): 34.1 nM
- IC50 (TCam2 cells; Homo sapiens, TCam2, 24 h): > 1000 nM
- IC50 (TCam2 cells; Homo sapiens, TCam2, 48 h): 582 nM
- IC50 (TCam2 cells; Homo sapiens, TCam2, 72 h): 273 nM
- sensitivity (XTT viability) (MPAF cells): almost resistant
- IC50 (MPAF cells; Homo sapiens, Fibroblast, 24 h): > 1000 nM
- IC50 (MPAF cells; Homo sapiens, Fibroblast, 48 h): > 1000 nM
- IC50 (MPAF cells; Homo sapiens, Fibroblast, 72 h): > 1000 nM
- IC50 (2102EP-R cells; Homo sapiens, 24 h): > 1000 nM
- IC50 (2102EP-R cells; Homo sapiens, 48 h): 21.9 nM
- IC50 (2102EP-R cells; Homo sapiens, 72 h): 7.56 nM
- IC50 (2102EP cells; Homo sapiens, 24 h): > 1000 nM
- IC50 (2102EP cells; Homo sapiens, 48 h): 39.9 nM
- IC50 (2102EP cells; Homo sapiens, 72 h): 18 nM
- IC50 (FS1 cells; Homo sapiens, FS1, 24 h): > 1000 nM
- IC50 (FS1 cells; Homo sapiens, FS1, 48 h): 696 nM
- IC50 (FS1 cells; Homo sapiens, FS1, 72 h): 91.5 nM
- IC50 (NCCIT-R cells; Homo sapiens, 24 h): 639 nM
- IC50 (NCCIT-R cells; Homo sapiens, 48 h): 107 nM
- IC50 (NCCIT-R cells; Homo sapiens, 72 h): 43.3 nM

From article PMC8997165, “Transcriptional CDK Inhibitors as Potential Treatment Option for Testicular Germ Cell Tumors” (Cancers, 2022)
